This is an account of results in ChEMBL document CHEMBL1142591, “Scalusamides A-C, new pyrrolidine alkaloids from the marine-derived fungus Penicillium citrinum” (2005).

Broadly, the MIC is the lowest concentration that inhibits growth of the organism.

One experiment relates to Cryptococcus neoformans. The experiment can be described thus: Antifungal activity against Cryptococcus neoformans. In kind it is functional.
Another experiment concerns Micrococcus luteus. In words: Antibacterial activity against Micrococcus luteus. The class given is functional.

≈ marks a conversion by molar mass, not a printed value.

As for `C/C=C/CCCCC(=O)C(C)C(=O)N1CCC[C@@H]1CO` (some centres not stated) [SCALUSAMIDE A], the values for the MIC in the experiment with Cryptococcus neoformans and in the experiment with Micrococcus luteus were 16.7 µg/mL (≈ 59.3 µM) and 33.3 µg/mL (≈ 118 µM), respectively.
